pIC50: −log10 of the molar value.
Legend:
[1] = Inhibition of JAK3 expressed in mouse BAF3 cells assessed as cytotoxicity
[2] = Inhibition of Blk expressed in mouse BAF3 cells assessed as cytotoxicity

C=CC(=O)Nc1ccc2ncnc(Nc3cccc(Br)c3)c2c1
pIC50 [1]: < 5.00 | pIC50 [2]: < 5.00
